Source: PubChem BioAssay AID256 (DTP/NCI, 2004)
Values joined by “and” are separate entries in the source; they are usually repeats but may differ in a detail not shown here. Identical values can stand only once. Toxic doses and inconclusive results are not listed. How the source made its calls: active means survival T/C of 150% or more; inactive means T/C below 125% in these data.

Test system: CD2F1 mice, L1210 leukemia ip, survival T/C
Experiment: NCI In Vivo Anticancer Drug Screen. Data for tumor model L1210 Leukemia (intraperitoneal) in CD2F1 (CDF1) mice
Settings: higher = longer survival
Summary of the method: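 Compound-dosed mice with transplantable tumor versus matched vehicle controls; endpoint ratio T/C reported.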

[1] = endpoint: mean survival time, dose: 25.0 mg/kg/injection, schedule: Q01DX009 (ip), vehicle: other
[2] = endpoint: mean survival time, dose: 50.0 mg/kg/injection, schedule: Q01DX009 (ip), vehicle: other
[3] = endpoint: mean survival time, dose: 100.0 mg/kg/injection, schedule: Q01DX009 (ip), vehicle: other
[4] = endpoint: mean survival time, dose: 100.0 mg/kg/injection, schedule: Q01DX009 (ip), vehicle: saline with Tween-80
[5] = endpoint: mean survival time, dose: 100.0 mg/kg/injection, schedule: Q04DX003 (ip), vehicle: saline with Tween-80
[6] = endpoint: mean survival time, dose: 200.0 mg/kg/injection, schedule: Q01DX009 (ip), vehicle: saline with Tween-80
[7] = endpoint: mean survival time, dose: 200.0 mg/kg/injection, schedule: Q04DX003 (ip), vehicle: saline with Tween-80
[8] = endpoint: mean survival time, dose: 400.0 mg/kg/injection, schedule: Q04DX003 (ip), vehicle: saline with Tween-80
[9] = endpoint: mean survival time, dose: 50.0 mg/kg/injection, schedule: Q01DX001 (ip), vehicle: saline with Tween-80
[10] = endpoint: mean survival time, dose: 100.0 mg/kg/injection, schedule: Q01DX001 (ip), vehicle: saline with Tween-80
[11] = endpoint: mean survival time, dose: 200.0 mg/kg/injection, schedule: Q01DX001 (ip), vehicle: saline with Tween-80
[12] = endpoint: mean survival time, dose: 50.0 mg/kg/injection, schedule: Q01DX009 (ip), vehicle: saline with Tween-80
[13] = endpoint: mean survival time, dose: 100.0 mg/kg/injection, schedule: Q01DX009 (ip), vehicle: saline
[14] = endpoint: mean survival time, dose: 200.0 mg/kg/injection, schedule: Q01DX009 (ip), vehicle: saline
[15] = endpoint: mean survival time, dose: 400.0 mg/kg/injection, schedule: Q01DX009 (ip), vehicle: saline
[16] = endpoint: mean survival time, dose: 100.0 mg/kg/injection, schedule: Q04DX002 (ip), vehicle: saline with Tween-80
[17] = endpoint: mean survival time, dose: 400.0 mg/kg/injection, schedule: Q01DX001 (ip), vehicle: saline with Tween-80
[18] = endpoint: mean survival time, dose: 200.0 mg/kg/injection, schedule: Q04DX002 (ip), vehicle: saline with Tween-80
[19] = endpoint: mean survival time, dose: 400.0 mg/kg/injection, schedule: Q04DX002 (ip), vehicle: saline with Tween-80

Measured: T/C

Cc1cc(N2C(=O)CCSC2=S)ccc1Cl
inactive: endpoint: mean survival time, dose: 12.5 mg/kg/injection, schedule: Q01DX009 (ip), vehicle: Klucel (hydroxypropylcellulose) (HPC) 101 % of control and 105 % of control | endpoint: mean survival time, dose: 25.0 mg/kg/injection, schedule: Q01DX009 (ip), vehicle: Klucel (hydroxypropylcellulose) (HPC) 95 % of control and 103 % of control and 109 % of control | endpoint: mean survival time, dose: 50.0 mg/kg/injection, schedule: Q01DX009 (ip), vehicle: Klucel (hydroxypropylcellulose) (HPC) 113 % of control and 97 % of control | endpoint: mean survival time, dose: 100.0 mg/kg/injection, schedule: Q01DX009 (ip), vehicle: Klucel (hydroxypropylcellulose) (HPC) 122 % of control and 123 % of control and 97 % of control | endpoint: mean survival time, dose: 200.0 mg/kg/injection, schedule: Q01DX009 (ip), vehicle: Klucel (hydroxypropylcellulose) (HPC) 95 % of control and 107 % of control | endpoint: mean survival time, dose: 400.0 mg/kg/injection, schedule: Q01DX009 (ip), vehicle: Klucel (hydroxypropylcellulose) (HPC) 102 % of control

OCC1OC(n2ncc3c(NO)ncnc32)C(O)C1O (stereo not given)
inactive: endpoint: mean survival time, dose: 1.56 mg/kg/injection, schedule: Q01DX005 (ip), vehicle: water 103 % of control | endpoint: mean survival time, dose: 3.13 mg/kg/injection, schedule: Q01DX005 (ip), vehicle: water 107 % of control | endpoint: mean survival time, dose: 6.25 mg/kg/injection, schedule: Q01DX005 (ip), vehicle: water 103 % of control | endpoint: mean survival time, dose: 12.5 mg/kg/injection, schedule: Q01DX005 (ip), vehicle: water 114 % of control | endpoint: mean survival time, dose: 25.0 mg/kg/injection, schedule: Q01DX005 (ip), vehicle: water 88 % of control

CCCCNC1=C(C)C(=O)C2=C(C1=O)C(COC(N)=O)C1(OC)C3NC3CN21 (stereo not given)
inactive: endpoint: mean survival time, dose: 6.3 mg/kg/injection, schedule: Q01DX001 (ip), vehicle: carboxymethylcellulose (CMC) 102 % of control | endpoint: mean survival time, dose: 9.5 mg/kg/injection, schedule: Q01DX001 (ip), vehicle: carboxymethylcellulose (CMC) 118 % of control | endpoint: mean survival time, dose: 14.25 mg/kg/injection, schedule: Q01DX001 (ip), vehicle: carboxymethylcellulose (CMC) 102 % of control

Cc1ccc(N2CCOC2=O)cc1N1CCOC1=O
inactive: [1] 100 % of control | [2] 105 % of control | [3] 102 % of control

O=C(Nc1ccc(OCC2=NCCN2)cc1)c1ccc(C(=O)Nc2ccc(OCC3=NCCN3)cc2)cc1
inactive: endpoint: median survival time, dose: 3.12 mg/kg/injection, schedule: Q01DX009 (ip), vehicle: saline with Tween-80 102 % of control | endpoint: median survival time, dose: 6.25 mg/kg/injection, schedule: Q01DX009 (ip), vehicle: saline with Tween-80 96 % of control | endpoint: median survival time, dose: 12.5 mg/kg/injection, schedule: Q01DX009 (ip), vehicle: saline with Tween-80 98 % of control | endpoint: median survival time, dose: 25.0 mg/kg/injection, schedule: Q01DX009 (ip), vehicle: saline with Tween-80 101 % of control | endpoint: median survival time, dose: 50.0 mg/kg/injection, schedule: Q01DX009 (ip), vehicle: saline with Tween-80 98 % of control

CCCn1c(O)c(C=N)c(=O)n(CCC)c1=O
inactive: [4] 98 % of control | [5] 96 % of control | [6] 101 % of control | [7] 97 % of control | endpoint: mean survival time, dose: 400.0 mg/kg/injection, schedule: Q01DX009 (ip), vehicle: saline with Tween-80 101 % of control | [8] 100 % of control

CS(C)=O.CS(C)=O.[Cl][Rh]([Cl])([Cl])[Cl]
inactive: endpoint: mean survival time, dose: 12.5 mg/kg/injection, schedule: Q01DX009 (ip), vehicle: saline 111 % of control | endpoint: mean survival time, dose: 12.5 mg/kg/injection, schedule: Q04DX003 (ip), vehicle: saline 100 % of control | endpoint: mean survival time, dose: 25.0 mg/kg/injection, schedule: Q01DX009 (ip), vehicle: saline 117 % of control | endpoint: mean survival time, dose: 25.0 mg/kg/injection, schedule: Q04DX003 (ip), vehicle: saline 98 % of control | endpoint: mean survival time, dose: 50.0 mg/kg/injection, schedule: Q01DX009 (ip), vehicle: saline 119 % of control | endpoint: mean survival time, dose: 50.0 mg/kg/injection, schedule: Q04DX003 (ip), vehicle: saline 100 % of control | endpoint: mean survival time, dose: 100.0 mg/kg/injection, schedule: Q04DX003 (ip), vehicle: saline 117 % of control

Nc1ccc(OCc2nc(N)nc(N)c2-c2ccc(Cl)cc2)cc1
inactive: [9] 95 % of control | [10] 101 % of control | [11] 93 % of control

CCC1(CC)C=CCC/C1=N\NS(=O)(=O)c1ccc(C)cc1
inactive: [12] 95 % of control | [4] 90 % of control | [5] 95 % of control | [6] 93 % of control | [7] 91 % of control

CCOC(=O)C1(C(=O)OCC)COC(C)(C)OC1
inactive: [13] 93 % of control | [14] 94 % of control | [15] 94 % of control

NCCN1c2ccccc2Sc2ccccc21
inactive: endpoint: mean survival time, dose: 12.5 mg/kg/injection, schedule: Q01DX009 (ip), vehicle: other 105 % of control | [1] 98 % of control | [2] 113 % of control

CN(C)c1nc(-c2ccncc2)nc(N2CCOCC2)n1
inactive: [16] 92 % of control

N#C/C(=C\c1ccc(-c2ccccc2)cc1)c1ccc(Cl)cc1
inactive: [7] 87 % of control

COc1ccc(OC)c2c1CCC(O)(C#N)C2 (stereo not given)
inactive: endpoint: mean survival time, dose: 12.5 mg/kg/injection, schedule: Q01DX009 (ip), vehicle: water 98 % of control | endpoint: mean survival time, dose: 25.0 mg/kg/injection, schedule: Q01DX009 (ip), vehicle: water 89 % of control

CC(C)OC(=O)Nc1ccc(F)cc1
inactive: [3] 94 % of control | endpoint: mean survival time, dose: 200.0 mg/kg/injection, schedule: Q01DX009 (ip), vehicle: other 91 % of control | endpoint: mean survival time, dose: 400.0 mg/kg/injection, schedule: Q01DX009 (ip), vehicle: other 100 % of control

CCC(=O)OC1(c2ccccc2)CCN(CCCc2ccccc2Cl)CC1
inactive: endpoint: mean survival time, dose: 25.0 mg/kg/injection, schedule: Q01DX001 (ip), vehicle: saline with Tween-80 108 % of control | endpoint: mean survival time, dose: 25.0 mg/kg/injection, schedule: Q04DX002 (ip), vehicle: saline with Tween-80 95 % of control | [9] 100 % of control | endpoint: mean survival time, dose: 50.0 mg/kg/injection, schedule: Q04DX002 (ip), vehicle: saline with Tween-80 98 % of control | [10] 96 % of control and 98 % of control | [16] 95 % of control

O=[N+]([O-])c1ccc(OCc2ccccc2)nc1
inactive: [10] 86 % of control | [11] 100 % of control | [17] 93 % of control

O=C(O)C(O)C(O)C(O)C(O)C(O)CO (stereo not given)
inactive: [13] 98 % of control | [14] 98 % of control | [15] 97 % of control

NC(=S)N/N=C/C(=O)c1ccc(Br)cc1
inactive: endpoint: mean survival time, dose: 100.0 mg/kg/injection, schedule: Q01DX001 (ip), vehicle: saline 102 % of control | endpoint: mean survival time, dose: 200.0 mg/kg/injection, schedule: Q01DX001 (ip), vehicle: saline 100 % of control

CCCCCCCCCSCCOC(=S)N(C)C
inactive: [16] 93 % of control | [18] 93 % of control | [19] 93 % of control

CC(Br)C(=O)c1ccc2ncccc2c1 (stereo not given)
inactive: endpoint: mean survival time, dose: 12.5 mg/kg/injection, schedule: Q04DX002 (ip), vehicle: saline + alcohol 98 % of control | endpoint: mean survival time, dose: 25.0 mg/kg/injection, schedule: Q04DX002 (ip), vehicle: saline + alcohol 101 % of control | endpoint: mean survival time, dose: 50.0 mg/kg/injection, schedule: Q04DX002 (ip), vehicle: saline + alcohol 95 % of control

COc1cc(C=O)ccc1OC(=O)Nc1cc([N+](=O)[O-])ccc1Cl
inactive: [12] 98 % of control and 102 % of control | [10] 93 % of control | [16] 92 % of control and 102 % of control | [5] 93 % of control | [11] 108 % of control | [18] 91 % of control and 92 % of control | [7] 107 % of control | [17] 96 % of control | [19] 88 % of control and 96 % of control | [8] 100 % of control

O=[N+]([O-])c1ccc(C2C3C(c4ccccc4)=NCN32)cc1 (stereo not given)
inactive: [5] 96 % of control | [7] 97 % of control | [8] 92 % of control

O=C(COc1ccc(Cl)c(Cl)c1)NCc1cccc(Cl)c1
inactive: [5] 95 % of control | [7] 93 % of control | [8] 95 % of control

O=C(C1=CN(CCCO)CCC1)c1cc2ccccc2[nH]1
inactive: [10] 94 % of control | [11] 94 % of control | [17] 97 % of control
